Measurements: patent US20160052936A1, “SPIROINDOLINE DERIVATIVES FOR USE AS GONADOTROPIN-RELEASING HORMONE RECEPTOR ANTAGONISTS” (BAYER PHARMA AKTIENGESELLSCHAFT, priority 2013, published 2016)

What was measured:
[1] = molecular target: T1, human GnRHR (Homo sapiens, UniProt P30968); assay: Tag-Lite receptor binding assay; conditions: Hek293 cells transiently transfected with human GnRHR; displacement of green-labelled GnRHR binding peptide; read-out: Potency in receptor binding assay using TAG-LITE technology, given as IC50
T1 construct: own knowledge: Tag-lite cells usually carry an N-terminal SNAP-tag fusion; host or cells: Hek293 cells, transiently transfected, supplied frozen
T1 sequence (P30968 1-328): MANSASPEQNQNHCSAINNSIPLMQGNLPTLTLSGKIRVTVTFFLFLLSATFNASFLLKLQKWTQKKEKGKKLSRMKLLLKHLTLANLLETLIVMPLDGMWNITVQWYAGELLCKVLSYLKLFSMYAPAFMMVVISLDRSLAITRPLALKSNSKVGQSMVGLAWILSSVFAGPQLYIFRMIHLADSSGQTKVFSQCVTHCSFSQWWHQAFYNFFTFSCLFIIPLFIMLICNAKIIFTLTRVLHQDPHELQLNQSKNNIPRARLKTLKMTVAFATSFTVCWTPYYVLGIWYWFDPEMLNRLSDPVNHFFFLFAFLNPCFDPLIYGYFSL
Description: 2.2. Tag-Lite® Receptor Binding Assay
This binding assay is based on the fluorescence resonance energy transfer between fluorescence donor labelled human GnRHR and a green-labelled GnRHR binding peptide. Compounds interfering with the ligand binding side of the human GnRHR will replace the labelled peptide resulting in a signal decrease. The assay principle was established by Cisbio Bioassays (Bagnols-sur-Cèze Cedex, France) and further details are available on their homepage.
The assay procedure was further optimized for use in-house with reduced assay volumes. Frozen Hek293 cells, transiently transfected with human GnRHR and Terbium-labelling of the receptor, were supplied by Cisbio Bioassays as well as Tag-Lite buffer and green-labelled GnRHR binding peptide. Cells were thawed and transferred to cold Tag-Lite buffer. A volume of 8 μl of this cell suspension were added to 100 nl of a 160-fold concentrated solution of the test compound in DMSO pre-dispensed in a well of a white low-volume 384-well microtiter plate (Greiner Bio-One, Frickenhausen, Germany). The mixture was incubated for 5 min at room temperature. In the next step either 4 μl Tag-Lite buffer or as control 4 μl of an exceeding amount unlabelled binding peptide in Tag-Lite buffer were transferred to the mixture. The green-labelled GnRHR binding peptide was added in a final step at EC50 in a volume of 4 μl Tag-Lite buffer. After an incubation of 1 h at room temperature plates were measured in a microplate reader, e.g. a PHERAstar (BMG Labtechnologies, Offenburg, Germany) by using a specific optic module.
A ratio from the fluorescence emissions at 520 nm (green fluorescence) and at 490 nm (background signal of Terbium-labelled GnRHR) was calculated and the data were normalized (reaction without test compound=0% inhibition of binding of green-labelled peptide; reaction without test compound with exceeding amount unlabelled binding peptide=100% inhibition of binding of green-labelled peptide). On the same microtiter plate, compounds were tested at 10 different concentrations in the range of 12.5 μM to 0.64 nM (12.5 μM, 4.2 μM, 1.4 μM, 0.46 μM, 0.15 μM, 51 nM, 17 nM, 5.7 nM, 1.9 nM and 0.64 nM; dilution series prepared before the assay at the level of the 160-fold conc. stock solutions by serial 1:3 dilutions in 100% DMSO) in duplicate values for each concentration. By using an in-house software, the IC50 values were calculated by a 4 parameter fit.

[2] = molecular target: T2, human GnRH receptor (Homo sapiens, UniProt P30968); assay: IP-One HTRF assay with buserelin stimulation; assay type: cell-based; conditions: CHO cells stably expressing human GnRH receptor; buserelin at EC80; read-out: Potency in IP-One HTRF assay with buserelin (at EC80) stimulation, given as IC50
T2 construct: host or cells: CHO cells stably expressing human GnRH receptor (line established by Prof. Thomas Gudermann)
T2 sequence (P30968 1-328): T1 sequence (P30968 1-328)
How it was run: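 CHO cells stably expressing human GnRH receptor, preincubated 1 h with IP1-d2 at 37 °C, treated with compound and EC80 buserelin (LiCl present) for 1 h at 37 °C; IP1 measured by HTRF (665/620 nm ratio) after lysis 1 h at 22 °C. Ten concentrations, 20 μM–1 nM, duplicate; IC50 by 4-parameter fit.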

Row | Compound | IC50 [1] [µM] | IC50 [2] [µM]
1 | O=C(NCc1ncc(C(F)(F)F)cc1F)c1ccc2c(c1)C1(CCS(=O)(=O)CC1)[C@H](C1CC1)N2S(=O)(=O)c1ccc(F)cc1 (single isomer, unassigned) [Example 1.1] | 0.23 | 0.093
2 | N#Cc1cccc(S(=O)(=O)N2c3ccc(C(=O)NCc4ncc(C(F)(F)F)cc4Cl)cc3C3(CCS(=O)(=O)CC3)[C@@H]2C2CC2)c1 (single isomer, unassigned) [Example 10.1] | 0.0103 | 0.014
3 | O=C(NCc1ncc(C(F)(F)F)cc1Cl)c1ccc2c(c1)C1(CCS(=O)(=O)CC1)[C@H](C1CC1)N2S(=O)(=O)c1ccc(F)cc1 [Example 3.1, (2S)—N-{[3-chloro-5-(trifluoromethyl)pyridin-2-yl]methyl}-2-cyclopropyl-1-[(4-fluorophenyl)sulfonyl]-1,2,2′,3′,5′,6′-hexahydrospiro[indole-3,4′-thiopyran]-5-carboxamide 1′,1′-dioxide] | 0.0167 | 0.021
